Patent US12625150B2, “Treatment of, and differential diagnosis between, ACTH-dependent Cushing's syndrome and ACTH-independent Cushing's syndrome” (Corcept Therapeutics Incorporated, priority 2019, dated 2026)
Values joined by “and” are separate entries in the source; they are usually repeats but may differ in a detail not shown here. Equal values may be shown once.

Experiments:
[1] = system: serum ACTH and cortisol levels; test: Serum ACTH and cortisol levels and ACTH:cortisol ratio in Cushing's syndrome patients administered mifepristone; format: in vivo, human
[2] = system: serum ACTH and cortisol levels; test: Serum ACTH and cortisol levels and ACTH:cortisol ratio in Cushing's syndrome patients administered relacorilant; format: in vivo, human; conditions: for change in ACTH:cortisol ratio following treatment: relacorilant 100-400 mg/day, six weeks
Procedure: Cushing's syndrome (CS) patients were examined and serum levels of ACTH and cortisol were measured in blood samples obtained from the patients. The serum ACTH and cortisol levels determined prior to administration of glucocorticoid receptor antagonist (GRA) therapy were used to calculate baseline ACTH:cortisol ratios (basal ACTH:cortisol ratios). […] The patients then received oral glucocorticoid receptor antagonist (GRA) therapy (either mifepristone or relacorilant, typically daily) for at least six weeks. The serum ACTH and cortisol levels determined after these six weeks of GRA therapy were used to calculate after-GRA ACTH:cortisol ratios. Three patients were treated with relacorilant (100 milligrams (mg) per day, titrated up to 400 mg per day, as tolerated; see Table 1). […] The results of these clinical measurements in Cushing's syndrome patients administered relacorilant (100 milligrams (mg) per day, titrated up to 400 mg per day, as tolerated) are presented in the Table 1: […]

SMILES: CC#C[C@]1(O)CC[C@H]2[C@@H]3CCC4=CC(=O)CCC4=C3[C@@H](c3ccc(N(C)C)cc3)C[C@@]21C [mifepristone, 11β-(4-dimethylaminophenyl)-17β-hydroxy-17α-(1-propynyl)-estra-4,9-dien-3-one]
- Basal ACTH ([1]; individual patients with confirmed pituitary CS (ACTH dependent), serum, prior to mifepristone): 16 pg/mL and 21 pg/mL and 20 pg/mL and 7 pg/mL and 15 pg/mL and 8 pg/mL
- Day 14 Serum Cortisol ([1]; individual patients with confirmed pituitary CS, day 14 of oral mifepristone 300 mg/day titrated up to 900 mg/day): 486 nmol/L and 955 nmol/L and 914 nmol/L and 900 nmol/L and 809 nmol/L and 613 nmol/L
- Basal Serum Cortisol ([1]; individual patients with confirmed pituitary CS, prior to mifepristone): 337 nmol/L and 632 nmol/L and 734 nmol/L and 317 nmol/L and 494 nmol/L and 502 nmol/L
- Day 14 ACTH ([1]; individual patients with confirmed pituitary CS, serum, day 14 of oral mifepristone 300 mg/day titrated up to 900 mg/day): 34 pg/ml (2×) and 53 pg/ml and 21 pg/ml and 30 pg/ml and 22 pg/ml
- Week 6 Basal ACTH ([1]; individual patients with confirmed pituitary CS, serum, week 6 of oral mifepristone 300 mg/day titrated up to 900 mg/day): 57 pg/mL and 52 pg/mL and 65 pg/mL and 24 pg/mL and 49 pg/mL and 20 pg/mL
- Week 6 Serum Cortisol ([1]; individual patients with confirmed pituitary CS, week 6 of oral mifepristone 300 mg/day titrated up to 900 mg/day): 679 nmol/L and 999 nmol/L and 1151 nmol/L and 955 nmol/L and 731 nmol/L and 654 nmol/L

SMILES: Cn1cc(S(=O)(=O)N2CCC3=Cc4c(cnn4-c4ccc(F)cc4)C[C@]3(C(=O)c3cc(C(F)(F)F)ccn3)C2)cn1 [relacorilant, (R)-(1-(4-fluorophenyl)-6-((1-methyl-1H-pyrazol-4-yl)sulfonyl)-4,4a,5,6,7,8-hexahydro-1H-pyrazolo[3,4-g]isoquinolin-4a-yl)(4-(trifluoromethyl)pyridin-2-yl)methanone]
- change in ACTH:cortisol ratio following treatment ([2]; CS patient with pituitary tumor (ACTH-dependent Cushing's syndrome)): increased
- Week 6 Serum Cortisol ([2]; adrenal CS patients (ACTH-independent), after six weeks of oral relacorilant 100 mg/day titrated up to 400 mg/day): 14.9 µg/dL and 17.1 µg/dL
- Baseline Serum Cortisol ([2]; adrenal CS patients (ACTH-independent), prior to relacorilant): 13.6 µg/dL and 16.2 µg/dL
- Week 6 Serum Cortisol ([2]; pituitary CS patient (ACTH-dependent), after six weeks of oral relacorilant 100 mg/day titrated up to 400 mg/day): 28.7 µg/dL
- Baseline Serum Cortisol ([2]; pituitary CS patient (ACTH-dependent), prior to relacorilant): 20.7 µg/dL
- Week 6 ACTH ([2]; pituitary CS patient (ACTH-dependent), serum, after six weeks of oral relacorilant 100 mg/day titrated up to 400 mg/day): 39.8 pg/mL
- Baseline ACTH ([2]; pituitary CS patient (ACTH-dependent), serum, prior to relacorilant): 23.9 pg/mL
- Post-Treatment Ratio (ACTH:cortisol) ([2]; pituitary CS patient, ACTH in pg/ml divided by cortisol in μg/dL, after six weeks of oral relacorilant 100-400 mg/day): 1.39
- Baseline Ratio (ACTH:cortisol) ([2]; pituitary CS patient, ACTH in pg/ml divided by cortisol in μg/dL, prior to relacorilant): 1.15
- change in ACTH:cortisol ratio following treatment ([2]; two CS patients with adrenal tumors (ACTH-independent Cushing's syndrome)): decreased
